Experimental data reported in PubChem BioAssay (NCI).
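Cells were grown in 96-well plates and exposed to each compound for 48 hours at five concentrations; endpoints were interpolated linearly between bracketing concentrations, or set to the highest concentration if not reached. GI50 marks 50% less growth. TGI is the concentration that stops growth completely.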

Legend:
Assay in all cases: DTP human tumour cell line panel, 48 h
HCC-2998 colon = tested on: HCC-2998 colon
BT-549 breast = tested on: BT-549 breast
T-47D breast = tested on: T-47D breast
HOP-92 NSCLC = tested on: HOP-92 NSCLC
SNB-19 CNS = tested on: SNB-19 CNS
SK-MEL-28 melanoma = tested on: SK-MEL-28 melanoma
K-562 leukemia = tested on: K-562 leukemia
OVCAR-5 ovarian = tested on: OVCAR-5 ovarian
786-0 renal = tested on: 786-0 renal
A498 renal = tested on: A498 renal
A549 NSCLC = tested on: A549 NSCLC
MOLT-4 leukemia = tested on: MOLT-4 leukemia
SF-268 CNS = tested on: SF-268 CNS
HT29 colon = tested on: HT29 colon
COLO 205 colon = tested on: COLO 205 colon
SW-620 colon = tested on: SW-620 colon
MDA-MB-231 breast = tested on: MDA-MB-231 breast
HCT-15 colon = tested on: HCT-15 colon
MALME-3M melanoma = tested on: MALME-3M melanoma
NCI-H522 lung = tested on: NCI-H522 lung
KM12 colon = tested on: KM12 colon
CCRF-CEM leukemia = tested on: CCRF-CEM leukemia
NCI-H23 lung = tested on: NCI-H23 lung
U251 CNS = tested on: U251 CNS
EKVX NSCLC = tested on: EKVX NSCLC
ACHN renal = tested on: ACHN renal
NCI/ADR-RES ovarian = tested on: NCI/ADR-RES ovarian
NCI-H226 lung = tested on: NCI-H226 lung
LOX IMVI melanoma = tested on: LOX IMVI melanoma
SF-295 CNS = tested on: SF-295 CNS
SF-539 CNS = tested on: SF-539 CNS
IGROV1 ovarian = tested on: IGROV1 ovarian
NCI-H460 lung = tested on: NCI-H460 lung
UACC-257 melanoma = tested on: UACC-257 melanoma
RXF 393 renal = tested on: RXF 393 renal
MCF7 breast = tested on: MCF7 breast
RPMI-8226 leukemia = tested on: RPMI-8226 leukemia
PC-3 prostate = tested on: PC-3 prostate
SK-OV-3 ovarian = tested on: SK-OV-3 ovarian
UO-31 renal = tested on: UO-31 renal
TK-10 renal = tested on: TK-10 renal
HOP-62 NSCLC = tested on: HOP-62 NSCLC
CAKI-1 renal = tested on: CAKI-1 renal
OVCAR-3 ovarian = tested on: OVCAR-3 ovarian
HCT-116 colon = tested on: HCT-116 colon
OVCAR-8 ovarian = tested on: OVCAR-8 ovarian
MDA-MB-435 = tested on: MDA-MB-435
UACC-62 melanoma = tested on: UACC-62 melanoma
OVCAR-4 ovarian = tested on: OVCAR-4 ovarian
SN12C renal = tested on: SN12C renal
DU-145 prostate = tested on: DU-145 prostate
SK-MEL-2 melanoma = tested on: SK-MEL-2 melanoma

NS(=O)(=O)c1ccc(N(/C=C/C(=O)C(F)(F)F)CC(=O)c2ccc(F)cc2)cc1
GI50 (HCC-2998 colon): 17.7 µM | TGI (HCC-2998 colon): 33.8 µM | GI50 (BT-549 breast): 19.3 µM | TGI (BT-549 breast): 43.3 µM | GI50 (T-47D breast): 43 µM | TGI (T-47D breast): > 100 µM | GI50 (HOP-92 NSCLC): 21.3 µM | TGI (HOP-92 NSCLC): 60.9 µM | GI50 (SNB-19 CNS): 53.8 µM | TGI (SNB-19 CNS): > 100 µM | GI50 (SK-MEL-28 melanoma): 43.7 µM | TGI (SK-MEL-28 melanoma): > 100 µM | GI50 (K-562 leukemia): 14 µM | TGI (K-562 leukemia): 54.6 µM | GI50 (OVCAR-5 ovarian): 28.8 µM | TGI (OVCAR-5 ovarian): 74.4 µM | GI50 (786-0 renal): 44.7 µM | TGI (786-0 renal): > 100 µM | GI50 (A498 renal): 0.0281 µM | TGI (A498 renal): 0.54 µM | GI50 (A549 NSCLC): 44.2 µM | TGI (A549 NSCLC): > 100 µM | GI50 (MOLT-4 leukemia): 20 µM | TGI (MOLT-4 leukemia): 72.5 µM | GI50 (SF-268 CNS): 34.8 µM | TGI (SF-268 CNS): > 100 µM | GI50 (HT29 colon): 35.2 µM | TGI (HT29 colon): > 100 µM | GI50 (COLO 205 colon): 20.5 µM | TGI (COLO 205 colon): 41.6 µM | GI50 (SW-620 colon): 21.5 µM | TGI (SW-620 colon): 46.6 µM | GI50 (MDA-MB-231 breast): 20.9 µM | TGI (MDA-MB-231 breast): 42 µM | GI50 (HCT-15 colon): 23.6 µM | TGI (HCT-15 colon): 85.5 µM | GI50 (MALME-3M melanoma): 43.1 µM | TGI (MALME-3M melanoma): 78.9 µM | GI50 (NCI-H522 lung): 26.1 µM | TGI (NCI-H522 lung): 51.5 µM | GI50 (KM12 colon): 24.5 µM | TGI (KM12 colon): 57.9 µM | GI50 (CCRF-CEM leukemia): 15.6 µM | TGI (CCRF-CEM leukemia): 41.5 µM | GI50 (NCI-H23 lung): 20.4 µM | TGI (NCI-H23 lung): 57.7 µM | GI50 (U251 CNS): 18.4 µM | TGI (U251 CNS): 48.9 µM | GI50 (EKVX NSCLC): 29.7 µM | TGI (EKVX NSCLC): 87.2 µM | GI50 (ACHN renal): 21.3 µM | TGI (ACHN renal): 67.1 µM | GI50 (NCI/ADR-RES ovarian): 18.2 µM | TGI (NCI/ADR-RES ovarian): 41.6 µM | GI50 (NCI-H226 lung): 22.6 µM | TGI (NCI-H226 lung): 40.9 µM | GI50 (LOX IMVI melanoma): 13.8 µM | TGI (LOX IMVI melanoma): 34.6 µM | GI50 (SF-295 CNS): 26.4 µM | TGI (SF-295 CNS): 85.7 µM | GI50 (SF-539 CNS): 20.9 µM | TGI (SF-539 CNS): 43 µM | GI50 (IGROV1 ovarian): 24.8 µM | TGI (IGROV1 ovarian): 52.5 µM | GI50 (NCI-H460 lung): 28.1 µM | TGI (NCI-H460 lung): > 100 µM | GI50 (UACC-257 melanoma): 22 µM | TGI (UACC-257 melanoma): 72.8 µM | GI50 (RXF 393 renal): 44 µM | TGI (RXF 393 renal): > 100 µM | GI50 (MCF7 breast): > 100 µM | TGI (MCF7 breast): > 100 µM | GI50 (RPMI-8226 leukemia): 19.5 µM | TGI (RPMI-8226 leukemia): 55.8 µM | GI50 (PC-3 prostate): 22.7 µM | TGI (PC-3 prostate): 81.2 µM | GI50 (SK-OV-3 ovarian): 63.3 µM | TGI (SK-OV-3 ovarian): > 100 µM | GI50 (UO-31 renal): 31.9 µM | TGI (UO-31 renal): > 100 µM | GI50 (TK-10 renal): 25.9 µM | TGI (TK-10 renal): > 100 µM | GI50 (HOP-62 NSCLC): 65.4 µM | TGI (HOP-62 NSCLC): > 100 µM | GI50 (CAKI-1 renal): 22.6 µM | TGI (CAKI-1 renal): 56.9 µM | GI50 (OVCAR-3 ovarian): 19.7 µM | TGI (OVCAR-3 ovarian): 47.3 µM | GI50 (HCT-116 colon): 22.5 µM | TGI (HCT-116 colon): > 100 µM | GI50 (OVCAR-8 ovarian): 42.3 µM | TGI (OVCAR-8 ovarian): > 100 µM | GI50 (MDA-MB-435): 26.5 µM | TGI (MDA-MB-435): 79.6 µM | GI50 (UACC-62 melanoma): 17.6 µM | TGI (UACC-62 melanoma): 31.9 µM | GI50 (OVCAR-4 ovarian): 57.1 µM | TGI (OVCAR-4 ovarian): > 100 µM | GI50 (SN12C renal): 19.4 µM | TGI (SN12C renal): 45.3 µM | GI50 (DU-145 prostate): 20.6 µM | TGI (DU-145 prostate): 52.2 µM | GI50 (SK-MEL-2 melanoma): 26.1 µM | TGI (SK-MEL-2 melanoma): 55.2 µM
